In patent US11339157B1, “4H-pyrrolo[3,2-c]pyridin-4-one derivatives” (Bayer Aktiengesellschaft, priority 2017, dated 2022):
Values joined by “and” are separate entries in the source; they are usually repeats but may differ in a detail not shown here. Equal values may be shown once.

Legend:
[1] = test system: Ba/F3-EGFR-insSVD cells; experiment: Proliferation assay in BA/F3 (ins SVD) cells (Cell Titer-Glo); type: cell-based; conditions: Mus musculus, BaF3, 48 h, Table 10, plated without EGF
Protocol: (§1) Cellular Data Description (WT, insSVD, Ins ASV)
(§2) Plates were incubated at 37° C. for 48 h. Retrovirus was harvested by filtering the media supernatant through a 0.45 μm filter.
(§3) Ba/F3 cells purchased from DSMZ were grown in RPMI+10% FBS+10 ng/mL IL-3 and infected with filtered retroviral supernatant at a 1:2 dilution. Polybrene was added to a concentration of 8 μg/mL, plates were spun for 90 min, and incubated overnight at 37° C. 2 μg/mL puromycin was added to the infected cells 24 h after infection and cells were continually grown in the presence of puromycin and 10 ng/mL IL-3. Following stably expressing Ba/F3 cell lines were generated: Ba/F3-EGFR-WT, Ba/F3-EGFR-insSVD.
(§4) The cells ectopically expressing WT EGFR were plated with 10 ng/mL Millipore Culture grade EGF. The cells ectopically expressing EGFR-insSVD were plated without EGF.
(§5) 100 nL of compound was added to each well using a 100 nL pin head, and plates were incubated at 37° C. for 48 h.
(§6) Cell viability was measured by adding 30 μL of Cell Titer-Glo Luminescent Cell Viability Reagent. Plates were sealed with Perkin Elmer Top-Seal, inverted several times to mix, and immediately centrifuged at 1000 rpm for 2 min. Plates were incubated in low light conditions for 8-10 min and luminescence was measured.

[2] = biological target: EGFR ins SVD (insertion of SVD between D770 and N771) (Homo sapiens, UniProt P00533, INS767SVD); experiment: Exon 20-Mutant-EGFR(D770_N771insSVD) kinase assay (TR-FRET); type: biochemical; conditions: Table 9; read-out: mutEGFR (D770_N771insSVD) kinase assay IC50
Chain of EGFR ins SVD (insertion of SVD between D770 and N771) (P00533 with tags, fused parts or gaps INS767SVD limits assumed): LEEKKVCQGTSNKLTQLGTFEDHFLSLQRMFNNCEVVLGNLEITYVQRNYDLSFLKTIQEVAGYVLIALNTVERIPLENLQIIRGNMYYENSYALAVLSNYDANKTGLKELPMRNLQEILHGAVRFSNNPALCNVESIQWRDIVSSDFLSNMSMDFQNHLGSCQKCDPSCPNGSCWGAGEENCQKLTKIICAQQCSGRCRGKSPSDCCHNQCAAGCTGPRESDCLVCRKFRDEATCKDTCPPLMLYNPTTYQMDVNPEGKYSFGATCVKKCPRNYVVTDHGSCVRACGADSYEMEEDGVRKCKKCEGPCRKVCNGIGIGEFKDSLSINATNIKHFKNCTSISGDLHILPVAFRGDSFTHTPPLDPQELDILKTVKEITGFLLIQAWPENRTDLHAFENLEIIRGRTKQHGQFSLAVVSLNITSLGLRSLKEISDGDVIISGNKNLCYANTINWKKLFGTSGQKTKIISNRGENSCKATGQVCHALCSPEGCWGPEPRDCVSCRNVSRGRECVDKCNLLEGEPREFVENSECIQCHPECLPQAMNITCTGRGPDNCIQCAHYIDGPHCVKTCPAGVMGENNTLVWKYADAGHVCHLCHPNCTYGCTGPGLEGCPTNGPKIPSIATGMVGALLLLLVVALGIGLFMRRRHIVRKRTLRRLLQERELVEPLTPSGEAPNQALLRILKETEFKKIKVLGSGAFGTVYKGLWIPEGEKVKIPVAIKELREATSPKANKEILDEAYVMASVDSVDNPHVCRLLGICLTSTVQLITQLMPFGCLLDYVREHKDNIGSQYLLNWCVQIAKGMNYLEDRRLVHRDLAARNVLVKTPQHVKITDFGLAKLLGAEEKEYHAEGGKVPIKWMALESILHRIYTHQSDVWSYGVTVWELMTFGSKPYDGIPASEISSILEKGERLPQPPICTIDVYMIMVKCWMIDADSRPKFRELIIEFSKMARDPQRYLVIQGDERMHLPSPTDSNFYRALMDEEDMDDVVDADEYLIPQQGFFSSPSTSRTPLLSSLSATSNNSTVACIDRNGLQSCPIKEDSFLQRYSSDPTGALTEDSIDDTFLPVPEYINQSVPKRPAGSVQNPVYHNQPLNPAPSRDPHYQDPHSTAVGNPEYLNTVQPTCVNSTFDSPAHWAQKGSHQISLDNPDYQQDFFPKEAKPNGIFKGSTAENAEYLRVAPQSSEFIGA
Protocol: Exon 20-Mutant-EGFR(D770_N771insSVD) Kinase Assay
Inhibitory activity of compounds of the present invention against an Epidermal Growth Factor Receptor (EGFR) with an insertion of the amino acids sequence SVD between D770 and N771 was quantified employing the TR-FRET based kinase activity assay as described in the following paragraphs.
For the assay 50 nl of a 100-fold concentrated solution of the test compound in DMSO was pipetted into either a black low volume 384 well microtiter plate or a black 1536 well microtiter plate (both Greiner Bio-One, Frickenhausen, Germany), 2 μl of a solution of EGFR in aqueous assay buffer [50 mM Hepes pH 7.0, 10 mM MgCl2, 1 mM dithiothreitol, 0.5 mM EGTA, 0.3 mM activated sodium ortho-vanadate, 0.005% (w/v) bovine serum albumin, 0.005% (v/v) Tween-20] were added and the mixture was incubated for 15 min at 22° C. to allow pre binding of the test compounds to the enzyme before the start of the kinase reaction. […] The concentration of EGFR was adjusted depending of the activity of the enzyme lot and was chosen appropriate to have the assay in the linear range, typical concentration was 15 pg/μl. The reaction was stopped by the addition of 3 μl of a solution of HTRF detection reagents (83.3 nM streptavidine-XL665 [Cisbio Bioassays, Codolet, France] and 1.67 nM PT66-Tb-Cryptate, a terbium-cryptate labelled anti-phospho-tyrosine antibody from Cisbio Bioassays [instead of the PT66 Tb cryptate PT66 Eu Chelate from Perkin Elmer can also be used]) in an aqueous EDTA-solution (133.3 mM EDTA, 0.2% (w/v) bovine serum albumin in 50 mM HEPES pH 7.5).
The resulting mixture was incubated 1 h at 22° C. to allow the binding of the biotinylated phosphorylated peptide to the streptavidine-XL665 and the PT66-Tb-Cryptate. Subsequently the amount of phosphorylated substrate was evaluated by measurement of the resonance energy transfer from the PT66-Tb-Cryptate to the streptavidine-XL665.

[3] = test system: Ba/F3-EGFR-WT cells; experiment: Proliferation assay in BA/F3 (wild type) cells (Cell Titer-Glo); type: cell-based; conditions: Mus musculus, BaF3, 48 h, Table 10, plated with 10 ng/mL EGF
Protocol: as §1, §2, §3, §4, §5, §6

SMILES	IC50 [1]	IC50 [2]	IC50 [3]
O=C1NCCc2[nH]c(-c3ccncc3OC[C@@H]3CCCO3)c(Nc3cccc(Cl)c3Cl)c21 [Example 70, 3-(2,3-dichloroanilino)-2-(3-{[(2S)-oxolan-2-yl]methoxy}pyridin-4-yl)-1,5,6,7-tetrahydro-4H-pyrrolo[3,2-c]pyridin-4-one]	16.1 nM	0.0918 nM	297 nM
Cc1c(Cl)cccc1Nc1c(-c2ccncc2OC[C@@H]2CCCN2C)[nH]c2c1C(=O)NCC2 [Example 77, 3-(3-chloro-2-methylanilino)-2-(3-{[(2S)-1-methylpyrrolidin-2-yl]methoxy}pyridin-4-yl)-1,5,6,7-tetrahydro-4H-pyrrolo[3,2-c]pyridin-4-one]	46.3 nM	0.727 nM	1480 nM
COC(C)(C)COc1cnccc1-c1[nH]c2c(c1Nc1cccc(F)c1Br)C(=O)NCC2 [Example 37, 3-(2-bromo-3-fluoroanilino)-2-[3-(2-methoxy-2-methylpropoxy)pyridin-4-yl]-1,5,6,7-tetrahydro-4H-pyrrolo[3,2-c]pyridin-4-one]	16 nM	0.12 nM and 0.0795 nM and 0.107 nM and 0.0958 nM and < 0.0725 nM (2×)	583 nM
COC(C)(C)COc1cnccc1-c1[nH]c2c(c1Nc1cc(F)cc(F)c1C)C(=O)NCC2 [Example 40, 3-(3,5-difluoro-2-methylanilino)-2-[3-(2-methoxy-2-methylpropoxy)pyridin-4-yl]-1,5,6,7-tetrahydro-4H-pyrrolo[3,2-c]pyridin-4-one]	50.5 nM	0.0994 nM	1450 nM
Cc1c(F)cc(F)cc1Nc1c(-c2ccncc2OCCN(C)C)[nH]c2c1C(=O)NCC2 [Example 55, 3-(3,5-difluoro-2-methylanilino)-2-{3-[2-(dimethylamino)ethoxy]pyridin-4-yl}-1,5,6,7-tetrahydro-4H-pyrrolo[3,2-c]pyridin-4-one]	303 nM	0.465 nM	2830 nM
COCCOc1cnccc1-c1[nH]c2c(c1Nc1cccc(Cl)c1Cl)C(=O)NCC2 [Example 46, 3-(2,3-dichloroanilino)-2-[3-(2-methoxyethoxy)pyridin-4-yl]-1,5,6,7-tetrahydro-4H-pyrrolo[3,2-c]pyridin-4-one]	15.1 nM	0.0912 nM	364 nM
Cc1c(F)cccc1Nc1c(-c2ccncc2OCC(C)(C)N(C)C)[nH]c2c1C(=O)NCC2 [Example 61, 2-{3-[2-(dimethylamino)-2-methylpropoxy]pyridin-4-yl}-3-(3-fluoro-2-methylanilino)-1,5,6,7-tetrahydro-4H-pyrrolo[3,2-c]pyridin-4-one]	88.9 nM	1.12 nM	1460 nM
Cc1c(Cl)cccc1Nc1c(-c2ccncc2OCCN(C)C)[nH]c2c1C(=O)NCC2 [Example 52, 3-(3-chloro-2-methylanilino)-2-{3[2-(dimethylamino)ethoxy]pyridin-4-yl}1,5,6,7-tetrahydro-4H-pyrrolo[3,2-c]pyridin-4-one]	29.1 nM	0.55 nM	834 nM
O=C1NCCc2[nH]c(-c3ccncc3OCC3CCOC3)c(Nc3cccc(Cl)c3OC(F)F)c21 (stereo not drawn) [Example 79, 3-[3-chloro-2-(difluoromethoxy)anilino]-2-{3-[(oxolan-3-yl)methoxy]pyridin-4-yl}-1,5,6,7-tetrahydro-4H-pyrrolo[3,2-c]pyridin-4-one]	118 nM	0.242 nM	1810 nM
COc1c(F)cccc1Nc1c(-c2ccncc2OCC(C)(C)O)[nH]c2c1C(=O)NCC2 [Example 72, 3-(3-fluoro-2-methoxyanilino)-2-[3-(2-hydroxy-2-methylpropoxy)pyridin-4-yl]-1,5,6,7-tetrahydro-4H-pyrrolo[3,2-c]pyridin-4-one]	67.7 nM	0.144 nM	1010 nM
Cc1c(F)cc(F)cc1Nc1c(-c2ccncc2OCC(C)(C)N(C)C)[nH]c2c1C(=O)NCC2 [Example 62, 3-(3,5-difluoro-2-methylanilino)-2-{3-[2-(dimethylamino)-2-methylpropoxy]pyridin-4-yl}-1,5,6,7-tetrahydro-4H-pyrrolo[3,2-c]pyridin-4-one]	166 nM	0.663 nM	2760 nM
COc1c(F)cccc1Nc1c(-c2ccncc2OCC2CCCO2)[nH]c2c1C(=O)NCC2 (stereo not drawn) [Example 86, 3-(3-fluoro-2-methoxyanilino)-2-{3-[(oxolan-2-yl)methoxy]pyridin-4-yl}-1,5,6,7-tetrahydro-4H-pyrrolo[3,2-c]pyridin-4-one]	12.8 nM	0.122 nM	377 nM
COCCOc1cnccc1-c1[nH]c2c(c1Nc1cccc(Cl)c1OC)C(=O)NCC2 [Example 32, 3-(3-chloro-2-methoxyanilino)-2-[3-(2-methoxyethoxy)pyridin-4-yl]-1,5,6,7-tetrahydro-4H-pyrrolo[3,2-c]pyridin-4-one]	9.87 nM	0.076 nM and < 0.0725 nM	299 nM
COc1c(F)cccc1Nc1c(-c2ccncc2OCCN(C)C)[nH]c2c1C(=O)NCC2 [Example 53, 2-{3-[2-(dimethylamino)ethoxy]pyridin-4-yl}-3-(3-fluoro-2-methoxyanilino)-1,5,6,7-tetrahydro-4H-pyrrolo[3,2-c]pyridin-4-one]	31.1 nM	0.332 nM	804 nM
CN1CCC[C@H]1COc1cnccc1-c1[nH]c2c(c1Nc1cccc(Cl)c1Cl)C(=O)NCC2 [Example 71, 3-(2,3-dichloroanilino)-2-(3-{[(2S)-1-methylpyrrolidin-2-yl]methoxy}pyridin-4-yl)-1,5,6,7-tetrahydro-4H-pyrrolo[3,2-c]pyridin-4-one]	20.2 nM	0.258 nM	781 nM
COC(C)(C)COc1cnccc1-c1[nH]c2c(c1Nc1cccc(F)c1C(F)(F)F)C(=O)NCC2 [Example 41, 3-[3-fluoro-2-(trifluoromethyl)anilino]-2-[3-(2-methoxy-2-methylpropoxy)pyridin-4-yl]-1,5,6,7-tetrahydro-4H-pyrrolo[3,2-c]pyridin-4-one]	52.5 nM	0.124 nM	795 nM
COc1c(Cl)cccc1Nc1c(-c2ccncc2OC[C@@H]2CCCN2C)[nH]c2c1C(=O)NCC2 [Example 48, 3-(3-chloro-2-methoxyanilino)-2-(3-{[(2S)-1-methylpyrrolidin-2-yl]methoxy}pyridin-4-yl)-1,5,6,7-tetrahydro-4H-pyrrolo[3,2-c]pyridin-4-one]	5.59 nM	0.358 nM	276 nM
COc1c(Nc2c(-c3ccncc3OCC(C)(C)OC)[nH]c3c2C(=O)NCC3)ccc(F)c1Cl [Example 44, 3-(3-chloro-4-fluoro-2-methoxyanilino)-2-[3-(2-methoxy-2-methylpropoxy)pyridin-4-yl]-1,5,6,7-tetrahydro-4H-pyrrolo[3,2-c]pyridin-4-one]	173 nM	0.0922 nM and < 0.0725 nM	2450 nM
